Measurements taken from publication PMC12040169 (PLOS Biology, 2025).

How the values were obtained:
in vitro = test: in vitro; design: Viability of infected HeLa host cells, resazurin conversion, bulk resorufin fluorescence relative to DMSO; conditions: human, hela cells; bulk resorufin, mean of 2
[1] = tested on: T1, C. trachomatis L2/434/Bu expressing GFP (CTL2-GFP); test: microbe, parasite or virus in culture; design: C. trachomatis total inclusion area by high-content imaging, normalised to DMSO; conditions: Chlamydia trachomatis, HeLa, 28.5 h; total inclusion area; read-out: % of control remaining
T1 construct: L2/434/Bu GFP intracellular growth in HeLa cells
Procedure, shortened: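 After bulk GFP and resorufin reads, fixed cells were Hoechst-stained and imaged to count chlamydial inclusions and host nuclei. Total inclusion area and number tracked bacterial growth, and nuclei number tracked host viability. MICs were derived, and 36,785 drug-like molecules were screened this way.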

[2] = tested on: T2, CTL2-GFP (C. trachomatis L2/434/Bu, GFP-expressing); test: microbe, parasite or virus in culture; design: Intracellular C. trachomatis growth in HeLa cells, bulk GFP fluorescence relative to DMSO; conditions: Chlamydia trachomatis, HeLa, 28.5 h; bulk GFP, mean of 2; read-out: % of control remaining
T2 construct: L2/434/Bu, GFP-expressing
Description: MICs were calculated as described above.

SMILES	viability at 28.5 h, 1 µM (in vitro) [%]	viability at 28.5 h, 5 µM (in vitro) [%]	viability at 28.5 h, 10 µM (in vitro) [%]	activity at 1 µM [1] [%]	activity at 5 µM [1] [%]	activity at 10 µM [1] [%]	activity at 1 µM [2] [%]	activity at 5 µM [2] [%]	activity at 10 µM [2] [%]
O=C(NCCCn1ccnc1)c1cc(-c2cccc(Br)c2)nc2ccccc12 [CBK265476]	108	115	116	76.4	28.5	3.75	88.9	13	0
CC(C)(C)c1ccc(N(C2CCNCC2)S(=O)(=O)c2cccc(C(F)(F)F)c2)cc1 [CBK165056T]	99.8	107	45.6	78	50.5	1	103	77.9	24.3
CC(C)(C)CC(C)(C)NC(=S)Nc1ccc2nc(-c3ccccn3)c(-c3ccccn3)nc2c1 [CBK265118]	110	106	98	82.1	31.9	16.8	95.9	66.8	47.2
COc1ccc([C@@]23CC=C(N(Cc4ccccc4)C(=O)Nc4ccc(F)c(F)c4)C[C@@H]2N(C)CC3)cc1OC [CBK050179]	93.3	95	112	62.1	80.2	52.4	105	86.7	69.8
O=C(O)c1cn(C2CC2)c2cc(N3CCN(C(=O)C4CCCO4)CC3)c(F)cc2c1=O (stereo not drawn) [CBK297139]	97	94.9	114	46.9	12.4	6.62	96.1	15.3	0.67
Cc1noc(-c2ccc3c(c2O)OCCO3)c1-c1ccc(Cl)cc1 [CBK018086]	96.5	97.6	99	73.6	0.782	0.691	62.5	3.44	2.13
O=C(OCCC1SC(NC2CC3C=CC2C3)=NC1=O)c1ccc(Cl)c([N+](=O)[O-])c1 (stereo not drawn) [CBK200060T]	92.3	96.8	88.4	132	108	68.7	140	129	103
COC(=O)CCc1ccc(-c2cnc(N)c(-c3ccc(O)cc3)n2)cc1 [CBK122809]	114	118	113	92.1	83.5	80.2	122	108	93.5
CC(=O)NC[C@H]1CN(c2ccc3c(c2)CCN(C(C)=O)CC3)C(=O)O1 [CBK018491]	91.8	95.1	112	57.6	10.2	1.08	112	8.52	0.0674
CC(C)(CN)CN(Cc1ccccc1Br)C(=O)NC(c1ccccc1)c1ccccc1 [CBK002488C]	92.2	93.1	90	112	116	38.2	150	114	85.7
Cc1cc(Br)ccc1C(=O)NCCc1c[nH]c2ccc(Cl)cc12 [CBK159771]	109	106	108	116	67.5	47.4	95.1	57.5	22.3
CC(=O)NC[C@H]1CN(c2ccc(C3=CC[S+]([O-])CC3)c(F)c2)C(=O)O1 (stereo partly drawn) [CBK017555]	88	95.4	86.3	85.7	7.09	1.05	134	11.9	18.3
O=C(NS(=O)(=O)c1cccc(-c2nnco2)c1)C1CC1C1CCCCC1 (stereo not drawn) [CBK305924]	91	99.4	94.7	120	151	119	129	146	143
CCOc1ccc2nc(NC(=N)N)nc(C)c2c1 [CBK010384C]	90.4	102	94.8	87	20.7	1.75	121	24.6	4.24
Cc1ccccc1Nc1nc(N)nc(CN2CCCC(C(F)(F)F)C2)n1 (stereo not drawn) [CBK305073]	96.6	101	97.7	144	60.7	97.8	153	120	139
Fc1cc(CN2CCC3(CC2)OCCc2c3[nH]c3ccc(Br)cc23)cc(F)c1F [CBK039943]	98.2	92.1	90.4	102	32.3	21.4	121	66.6	46.8
O=[N+]([O-])c1cc2c(cc1C(Nc1ccccn1)c1cc(Cl)c3cccnc3c1O)OCO2 (stereo not drawn) [CBK267795]	95.1	98.7	93.2	94.3	40.8	25.9	109	82.9	79.7
CN(C)c1ccc(Nc2nc(NCCO)c3ccccc3n2)cc1 [CBK268392C]	95.3	103	100	69.7	4.24	0.899	130	4.94	6.78
CCNC(=O)N1CC2(CCN(Cc3nc4ccccc4[nH]3)CC2)c2ccccc21 [CBK126693]	100	94.1	96.7	74.5	89.8	65	115	120	109
Cn1cc(C(c2ccc(OCC(=O)O)cc2)c2cn(C)c3ccccc23)c2ccccc21 [CBK266403]	113	111	115	87.5	36	2.98	91	23.4	9.15
COc1cc(NS(=O)(=O)c2ccc(N/C=C3/CCc4ccccc4C3=O)cc2)nc(OC)n1 [CBK263376]	101	99.1	78.6	83.5	48.7	12.5	108	26	22.7
Cc1ccc(S(=O)(=O)Nc2ccc(S(=O)(=O)Nc3nccs3)cc2)c([N+](=O)[O-])c1 [CBK267410]	110	97.6	98.2	23	5.7	1.86	17.1	7.21	1.76
CC(C)c1ccc(S(=O)(=O)Nc2cccc(SC(F)(F)F)c2)cc1 [CBK044581]	96.5	95.7	103	116	69.4	80.6	113	76	82.6
CC(=O)NC[C@H]1CN(c2ccc(C#N)c(C)c2)C(=O)O1 [CBK010393]	89.7	90.3	89.8	102	94.2	42.5	120	98	55.2
FC(F)(F)c1ccc(N2CCNCC2)nc1OCc1ccc2c(c1)OCCO2 [CBK003994A]	100	103	96.6	82.5	8.88	7.41	106	40.3	22.5
